Reference: PubChem BioAssay (NCI)
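Cultured in 96-well plates, cells were exposed to test compound for 48 hours across five concentrations. GI50 = concentration required for 50% inhibition of growth. TGI denotes the concentration required for complete inhibition of growth.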

Assays:
Test in all cases: DTP human tumour cell line panel, 48 h
786-0 renal = test system: 786-0 renal
A498 renal = test system: A498 renal
A549 NSCLC = test system: A549 NSCLC
ACHN renal = test system: ACHN renal
BT-549 breast = test system: BT-549 breast
CAKI-1 renal = test system: CAKI-1 renal
CCRF-CEM leukemia = test system: CCRF-CEM leukemia
COLO 205 colon = test system: COLO 205 colon
EKVX NSCLC = test system: EKVX NSCLC
HCC-2998 colon = test system: HCC-2998 colon
HCT-116 colon = test system: HCT-116 colon
HCT-15 colon = test system: HCT-15 colon
HOP-62 NSCLC = test system: HOP-62 NSCLC
HOP-92 NSCLC = test system: HOP-92 NSCLC
HS 578T breast = test system: HS 578T breast
HT29 colon = test system: HT29 colon
IGROV1 ovarian = test system: IGROV1 ovarian
K-562 leukemia = test system: K-562 leukemia
KM12 colon = test system: KM12 colon
LOX IMVI melanoma = test system: LOX IMVI melanoma
M14 melanoma = test system: M14 melanoma
MALME-3M melanoma = test system: MALME-3M melanoma
MCF7 breast = test system: MCF7 breast
MDA-MB-231 breast = test system: MDA-MB-231 breast
MDA-MB-435 = test system: MDA-MB-435
MOLT-4 leukemia = test system: MOLT-4 leukemia
NCI-H226 lung = test system: NCI-H226 lung
NCI-H460 lung = test system: NCI-H460 lung
NCI-H522 lung = test system: NCI-H522 lung
NCI/ADR-RES ovarian = test system: NCI/ADR-RES ovarian
OVCAR-4 ovarian = test system: OVCAR-4 ovarian
OVCAR-5 ovarian = test system: OVCAR-5 ovarian
OVCAR-8 ovarian = test system: OVCAR-8 ovarian
PC-3 prostate = test system: PC-3 prostate
RPMI-8226 leukemia = test system: RPMI-8226 leukemia
RXF 393 renal = test system: RXF 393 renal
SF-268 CNS = test system: SF-268 CNS
SF-295 CNS = test system: SF-295 CNS
SF-539 CNS = test system: SF-539 CNS
SK-MEL-2 melanoma = test system: SK-MEL-2 melanoma
SK-MEL-28 melanoma = test system: SK-MEL-28 melanoma
SK-MEL-5 melanoma = test system: SK-MEL-5 melanoma
SK-OV-3 ovarian = test system: SK-OV-3 ovarian
SN12C renal = test system: SN12C renal
SNB-19 CNS = test system: SNB-19 CNS
SNB-75 CNS = test system: SNB-75 CNS
SW-620 colon = test system: SW-620 colon
TK-10 renal = test system: TK-10 renal
U251 CNS = test system: U251 CNS
UACC-257 melanoma = test system: UACC-257 melanoma
UACC-62 melanoma = test system: UACC-62 melanoma
OVCAR-3 ovarian = test system: OVCAR-3 ovarian
T-47D breast = test system: T-47D breast
DU-145 prostate = test system: DU-145 prostate
HL-60(TB) leukemia = test system: HL-60(TB) leukemia
NCI-H23 lung = test system: NCI-H23 lung
SR leukemia = test system: SR leukemia
UO-31 renal = test system: UO-31 renal

Cc1ccc(-c2c(C#N)c(-c3ccc(C)cc3)n(NS(=O)(=O)c3ccccc3)c(=O)c2C#N)cc1
TGI (786-0 renal): > 100 µM | TGI (A498 renal): > 100 µM | TGI (A549 NSCLC): > 100 µM | TGI (ACHN renal): > 100 µM | TGI (BT-549 breast): > 100 µM | TGI (CAKI-1 renal): > 100 µM | TGI (CCRF-CEM leukemia): 77.7 µM | TGI (COLO 205 colon): > 100 µM | TGI (EKVX NSCLC): > 100 µM | TGI (HCC-2998 colon): > 100 µM | TGI (HCT-116 colon): > 100 µM | TGI (HCT-15 colon): > 100 µM | TGI (HOP-62 NSCLC): > 100 µM | TGI (HOP-92 NSCLC): > 100 µM | TGI (HS 578T breast): > 100 µM | TGI (HT29 colon): > 100 µM | TGI (IGROV1 ovarian): > 100 µM | TGI (K-562 leukemia): > 100 µM | TGI (KM12 colon): > 100 µM | TGI (LOX IMVI melanoma): > 100 µM | TGI (M14 melanoma): > 100 µM | TGI (MALME-3M melanoma): > 100 µM | TGI (MCF7 breast): > 100 µM | TGI (MDA-MB-231 breast): > 100 µM | TGI (MDA-MB-435): > 100 µM | TGI (MOLT-4 leukemia): 64.7 µM | TGI (NCI-H226 lung): > 100 µM | TGI (NCI-H460 lung): > 100 µM | TGI (NCI-H522 lung): > 100 µM | TGI (NCI/ADR-RES ovarian): > 100 µM | TGI (OVCAR-4 ovarian): > 100 µM | TGI (OVCAR-5 ovarian): > 100 µM | TGI (OVCAR-8 ovarian): > 100 µM | TGI (PC-3 prostate): > 100 µM | TGI (RPMI-8226 leukemia): 38.8 µM | TGI (RXF 393 renal): > 100 µM | TGI (SF-268 CNS): > 100 µM | TGI (SF-295 CNS): > 100 µM | TGI (SF-539 CNS): 61.2 µM | TGI (SK-MEL-2 melanoma): > 100 µM | TGI (SK-MEL-28 melanoma): > 100 µM | TGI (SK-MEL-5 melanoma): 31.2 µM | TGI (SK-OV-3 ovarian): > 100 µM | TGI (SN12C renal): > 100 µM | TGI (SNB-19 CNS): > 100 µM | TGI (SNB-75 CNS): > 100 µM | TGI (SW-620 colon): > 100 µM | TGI (TK-10 renal): > 100 µM | TGI (U251 CNS): > 100 µM | TGI (UACC-257 melanoma): > 100 µM | TGI (UACC-62 melanoma): > 100 µM

COc1cc(/C=C/C(=O)c2ccc(O)c(OC)c2)ccc1O
TGI (COLO 205 colon): 41.2 µM | TGI (EKVX NSCLC): 41.6 µM | TGI (HOP-92 NSCLC): 50.7 µM | TGI (HS 578T breast): 60.3 µM | TGI (MALME-3M melanoma): 51.4 µM | TGI (MDA-MB-231 breast): 79.4 µM | TGI (NCI-H226 lung): 46.3 µM | TGI (NCI-H522 lung): 32.3 µM | TGI (OVCAR-3 ovarian): 72 µM | TGI (OVCAR-4 ovarian): 71.4 µM | TGI (OVCAR-5 ovarian): 50.8 µM | TGI (SF-295 CNS): 49 µM | TGI (SK-MEL-2 melanoma): 42.6 µM | TGI (SK-MEL-28 melanoma): 36.5 µM | TGI (SK-OV-3 ovarian): 93.4 µM | TGI (SNB-75 CNS): 77.5 µM | TGI (T-47D breast): 58.7 µM | TGI (TK-10 renal): 87.9 µM | TGI (UACC-257 melanoma): 45.9 µM

Cc1cc(Cl)cc(OCCn2cc(F)cn2)c1-c1nc(N)nc2c1CN(C(=O)NCC(C)(F)F)C2
GI50 (786-0 renal): 3.18 µM | TGI (786-0 renal): > 100 µM | GI50 (A498 renal): 0.261 µM | TGI (A498 renal): > 100 µM | GI50 (A549 NSCLC): 0.116 µM | TGI (A549 NSCLC): > 100 µM | GI50 (ACHN renal): 0.184 µM | TGI (ACHN renal): > 100 µM | GI50 (BT-549 breast): 50.3 µM | TGI (BT-549 breast): > 100 µM | GI50 (CAKI-1 renal): 0.755 µM | TGI (CAKI-1 renal): > 100 µM | GI50 (CCRF-CEM leukemia): 0.0507 µM | TGI (CCRF-CEM leukemia): > 100 µM | GI50 (COLO 205 colon): 0.0395 µM | TGI (COLO 205 colon): 1.19 µM | GI50 (DU-145 prostate): 0.0652 µM | TGI (DU-145 prostate): > 100 µM | GI50 (HCC-2998 colon): 0.315 µM | TGI (HCC-2998 colon): > 100 µM | GI50 (HCT-116 colon): 0.0548 µM | TGI (HCT-116 colon): > 100 µM | GI50 (HCT-15 colon): 0.386 µM | TGI (HCT-15 colon): > 100 µM | GI50 (HL-60(TB) leukemia): 0.0407 µM | TGI (HL-60(TB) leukemia): > 100 µM | GI50 (HOP-62 NSCLC): 0.622 µM | TGI (HOP-62 NSCLC): > 100 µM | GI50 (HOP-92 NSCLC): 0.192 µM | TGI (HOP-92 NSCLC): 0.728 µM | TGI (HS 578T breast): > 100 µM | GI50 (HT29 colon): 0.0355 µM | TGI (HT29 colon): > 100 µM | GI50 (IGROV1 ovarian): 0.138 µM | TGI (IGROV1 ovarian): > 100 µM | GI50 (K-562 leukemia): 0.0519 µM | TGI (K-562 leukemia): > 100 µM | GI50 (KM12 colon): 0.0508 µM | TGI (KM12 colon): 0.459 µM | GI50 (LOX IMVI melanoma): 0.0852 µM | TGI (LOX IMVI melanoma): 0.552 µM | GI50 (M14 melanoma): 0.0848 µM | TGI (M14 melanoma): > 100 µM | GI50 (MALME-3M melanoma): 0.0684 µM | TGI (MALME-3M melanoma): > 100 µM | GI50 (MCF7 breast): 0.0339 µM | TGI (MCF7 breast): > 100 µM | GI50 (MDA-MB-231 breast): 0.257 µM | TGI (MDA-MB-231 breast): > 100 µM | GI50 (MDA-MB-435): 0.0578 µM | TGI (MDA-MB-435): > 100 µM | GI50 (MOLT-4 leukemia): 0.112 µM | TGI (MOLT-4 leukemia): > 100 µM | GI50 (NCI-H226 lung): 0.233 µM | TGI (NCI-H226 lung): > 100 µM | GI50 (NCI-H23 lung): 0.273 µM | TGI (NCI-H23 lung): > 100 µM | GI50 (NCI-H460 lung): 0.0414 µM | TGI (NCI-H460 lung): > 100 µM | GI50 (NCI-H522 lung): 0.0781 µM | TGI (NCI-H522 lung): > 100 µM | GI50 (NCI/ADR-RES ovarian): 53.1 µM | TGI (NCI/ADR-RES ovarian): > 100 µM | GI50 (OVCAR-3 ovarian): 0.54 µM | TGI (OVCAR-3 ovarian): > 100 µM | GI50 (OVCAR-4 ovarian): > 100 µM | TGI (OVCAR-4 ovarian): > 100 µM | GI50 (OVCAR-5 ovarian): 2.66 µM | TGI (OVCAR-5 ovarian): > 100 µM | GI50 (OVCAR-8 ovarian): 0.0776 µM | TGI (OVCAR-8 ovarian): > 100 µM | GI50 (PC-3 prostate): 0.0924 µM | TGI (PC-3 prostate): > 100 µM | TGI (RPMI-8226 leukemia): > 100 µM | TGI (RXF 393 renal): > 100 µM | GI50 (SF-268 CNS): > 55.4 µM | TGI (SF-268 CNS): > 100 µM | GI50 (SF-295 CNS): 0.131 µM | TGI (SF-295 CNS): > 93.9 µM | GI50 (SF-539 CNS): 0.181 µM | TGI (SF-539 CNS): > 100 µM | GI50 (SK-MEL-2 melanoma): 0.508 µM | TGI (SK-MEL-2 melanoma): > 100 µM | GI50 (SK-MEL-28 melanoma): 0.0709 µM | TGI (SK-MEL-28 melanoma): > 100 µM | GI50 (SK-MEL-5 melanoma): 0.179 µM | TGI (SK-MEL-5 melanoma): > 100 µM | GI50 (SK-OV-3 ovarian): 0.0492 µM | TGI (SK-OV-3 ovarian): > 100 µM | GI50 (SN12C renal): 0.0745 µM | TGI (SN12C renal): > 100 µM | GI50 (SNB-19 CNS): 0.477 µM | TGI (SNB-19 CNS): > 100 µM | TGI (SNB-75 CNS): > 100 µM | GI50 (SR leukemia): 0.0495 µM | TGI (SR leukemia): > 100 µM | GI50 (SW-620 colon): 0.043 µM | TGI (SW-620 colon): > 100 µM | GI50 (T-47D breast): 0.235 µM | TGI (T-47D breast): > 100 µM | GI50 (TK-10 renal): 0.144 µM | TGI (TK-10 renal): > 100 µM | GI50 (U251 CNS): 0.114 µM | TGI (U251 CNS): > 100 µM | GI50 (UACC-257 melanoma): 0.142 µM | TGI (UACC-257 melanoma): > 100 µM | GI50 (UACC-62 melanoma): 0.0779 µM | TGI (UACC-62 melanoma): > 100 µM | GI50 (UO-31 renal): 0.682 µM | TGI (UO-31 renal): > 100 µM
